According to paper PMC11018795, “The regulatory relationship between NAMPT and PD-L1 in cancer and identification of a dual-targeting inhibitor” (EMBO Molecular Medicine, 2024):
Where “and” joins values, the source holds several entries; their conditions need not be identical. Equal entries are not always repeated.

Columns and labels:
[1] = system: lung cancer organoids derived from lung cancer patients; test: Patient-derived lung cancer organoid viability; format: cell-based, human; conditions: 100 nM; 9 days
Method: Human lung cancer samples were obtained from Shengjing Hospital of China Medical University (IRB No. 2023PS1105K). The establishment of lung cancer patient-derived organoids was performed as described ([…] et al, [2019]). Organoids were seeded into 96-well plates and treated with the corresponding compounds for 9 days, and cell viability was determined by CellTiter Glo 3D cell viability assay (Promega, G9683).

[2] = system: LLC OE NAMPT cells co-cultured with T cells; test: T cell-mediated tumor cell killing assay, LLC OE NAMPT; format: cell-based; conditions: Mus musculus, 100 nM, read-out: inhibition rate (T cell-mediated killing)
Method: (§1) To acquire activated T cells, human peripheral blood mononuclear cells (PBMC; LTS1077, Yanjin Biological) were cultured in CTSTM AIIM VTM SFM (A3021002; Gibco) with ImmunoCult Human CD3/CD28/CD2 T-cell activator (25 µL/mL; […] Technologies, Cat#10970) for 48 h according to the manufacturer’s protocol. The experiments were performed using mouse anti-CD3 antibody (1 µg/mL; Thermo Scientific, 16-0032-82) and anti-CD28 antibody(5 µg/mL; Thermo Scientific, 16-0281-82). Cancer cells were allowed to adhere to the plates overnight and then incubated for 48 h with activated T cells in the presence or absence of DX ([…]). Different proportions of cancer cells and activated T cells were utilized according to the purpose of each experiment. The T-cell proliferation assay was 1:3; the T-cell killing assay was 1:10; T cells and cell debris were removed by PBS washing, and the living cancer cells were then quantified by a spectrometer at OD (570 nm) followed by crystal violet staining. page 12: Fig 3: […] expression patterns. […] Data was obtained from the TCGA database. (B) T cell-mediated tumor cell killing assay. T cells were co-cultured with LLC Vector, […] CQ-85, or BMS202. […] stained by crystal violet. The relative added value of activated T cells is shown below. Data are presented as mean ± SEM; *P < 0.05, **P < 0.01, ***P < 0.001, compared with control. n.s., not significant. […]

PD-1/PD-L1 interaction = biological target: T1, PD-1/PD-L1 interaction (Homo sapiens, UniProt Q9NZQ7); test: In vitro PD-1/PD-L1-binding assay (Cisbio kit)
T1 construct: purchased Cisbio 64ICP01PEG
T1 sequence (Q9NZQ7 19-238 limits assumed): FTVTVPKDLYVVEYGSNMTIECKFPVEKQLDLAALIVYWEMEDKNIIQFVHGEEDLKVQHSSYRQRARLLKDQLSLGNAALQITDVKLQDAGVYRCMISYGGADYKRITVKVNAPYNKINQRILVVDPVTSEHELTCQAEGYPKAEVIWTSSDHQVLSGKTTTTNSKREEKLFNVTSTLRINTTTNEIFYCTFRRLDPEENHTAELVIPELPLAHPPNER
Method: The biochemical activity of the final compounds was evaluated using a PD-1/PD-L1 binding assay kit (Cisbio, cat. No. 64ICP01PEG). Experiments were performed according to the manufacturer’s instructions.

Hep-3B cells = test: MTT assay 48 h, Hep-3B; format: cell-based, human
Method: (§2) Cells (5 × 10^3/well) were seeded into a 96-well plate and cultured at 37 °C in a 5% CO2 incubator. […] At the final time point, 10 μl MTT solution (5 mg/ml, Sigma, Burlington, MA, USA) was added to each well and incubated for an additional 4 h at 37 °C in a 5% CO2 incubator. Then,100 μl of DMSO was added to each well and mixed thoroughly. Optical density was measured at 492 nm using a microplate reader (Molecular Devices, San Jose, CA, USA).

[3] = system: NAD+ content of A2780 cells; test: NAD+ assay in A2780 cells; format: cell-based, human; conditions: for Relative NAD+: 0 nM = 100
Method: NAD^+ assays were performed to quantify the total NAD^+ content. NAD^+ assay was performed using the NAD/NADH Assay Kit (ab65348; Abcam) according to the manufacturer’s recommended protocol.

[4] = system: LLC OE PD-L1 cells co-cultured with T cells; test: T cell-mediated tumor cell killing assay, LLC OE PD-L1; format: cell-based; conditions: Mus musculus, 100 nM, read-out: inhibition rate (T cell-mediated killing)
Method: as §1

CT-26 cells = test: MTT assay 48 h, CT-26; format: cell-based, mouse
Method: as §2

HCT-116 cells = test: Cell cycle analysis, HCT-116; format: cell-based, human
Excerpt: (§3) Supplement 44321_2024_51_MOESM5_ESM.zip/Fig4-D.xlsx, sheet "Sheet1" | column: G0/G1; S; G2/M

LLC cells = test: Cell cycle analysis, LLC; format: cell-based, mouse
Excerpt: as §3

A2780 cells [5] = test: MTT assay 48 h, A2780; format: cell-based, human
Method: as §2

A20 tumors = test: A20 tumor-bearing Balb/c mice; format: in vivo, mouse; conditions: for tumor inhibition rate (TIR) / tumor growth inhibition (TGI) rate at endpoint: 12 days, Fig 6B
A2780 cells [6] = test: Cell cycle analysis, A2780; format: cell-based, human
Excerpt: as §3

[7] = system: LLC OE N/P cells co-cultured with T cells; test: T cell-mediated tumor cell killing assay, LLC OE N/P; format: cell-based; conditions: Mus musculus, 100 nM, read-out: inhibition rate (T cell-mediated killing)
Method: as §1

## CCN(CC)CCCOc1cccc(-c2cccc3c2CCN3C(=O)c2ncc(CNC(=NC#N)Nc3ccncc3)s2)c1 [LZFPN-90]
[1]
  survival of lung cancer organoids: the survival of the organoids was decreased significantly
[2]
  inhibition at 0.1 µM: ~60%
PD-1/PD-L1 interaction
  IC50: 13 nM
Hep-3B cells
  Relative inhibition (敏感性): 0.42
[3]; A2780 cells
  effect on NAD+ content: concentration-dependent reduction in the NAD^+ content
[3]; LZFPN-90 1.25 nM
  Relative NAD+: 35.1891 and 32.3761
[3]; LZFPN-90 2.5 nM
  Relative NAD+: 12.5247 and 11.2894
[3]; LZFPN-90 5 nM
  Relative NAD+: 8.877 and 6.867
[3]; LZFPN-90 10 nM
  Relative NAD+: 2.626 and 2.637
[4]
  inhibition at 0.1 µM: ~60%
CT-26 cells
  Relative inhibition (敏感性): 0.17
HCT-116 cells; LZ90 20
  Cell cycle G0/G1: 30.68 and 20.48 and 22.54
  Cell cycle G2/M: 39.61 and 24.71 and 42.91
  Cell cycle S: 43.42 and 36.35 and 37.23
HCT-116 cells; LZ90 40
  Cell cycle G0/G1: 26.06 and 19.94 and 21.52
  Cell cycle G2/M: 39.6 and 30.95 and 41.08
  Cell cycle S: 42.06 and 38.61 and 38.5
HCT-116 cells; LZ90 60
  Cell cycle G0/G1: 42.69 and 40.27 and 41.43
  Cell cycle G2/M: 18.16 and 13.12 and 19.4
  Cell cycle S: 43.44 and 39.68 and 39.66
LLC cells; LZ90 20
  Cell cycle G0/G1: 32.7 and 33.42 and 33.1
  Cell cycle G2/M: 8.23 and 9.12 and 10.84
  Cell cycle S: 58.16 and 55.72 and 58.65
LLC cells; LZ90 40
  Cell cycle G0/G1: 31.17 and 30.64 and 32.74
  Cell cycle G2/M: 10.63 and 9.6 and 10.7
  Cell cycle S: 59.19 and 58.63 and 56.62
LLC cells; LZ90 60
  Cell cycle G0/G1: 31.65 and 30.97 and 32.77
  Cell cycle G2/M: 11.3 and 9.97 and 11.14
  Cell cycle S: 58.36 and 57.86 and 55.9
A2780 cells [5]
  Relative inhibition (敏感性): 0.85
A20 tumors; 20 mg/kg i.p.
  tumor inhibition rate (TIR) / tumor growth inhibition (TGI) rate at endpoint: 73.76%
A20 tumors; 40 mg/kg i.p.
  tumor inhibition rate (TIR) / tumor growth inhibition (TGI) rate at endpoint: 83.11%
A20 tumors; A20 model, FK866 20 mg/kg, LZFPN-90 20 and 40 mg/kg i.p.
  effect on mouse organ or body weight: no obvious effect on mouse organ or body weight
A20 tumors; Balb/c mice, 20 mg/kg i.p., Fig 6E
  TIR (relative tumor weight): 73.8%
A20 tumors; repeat experiment, 40 mg/kg i.p.
  tumor inhibition rate (TIR): 82.70%
A20 tumors; repeat experiment, LZFPN-90 40 mg/kg, FK866 20 mg/kg + CQ-85 20 mg/kg i.p.
  effect on mouse organ index or body weight: no obvious effect on mouse organ index or body weight
A20 tumors; two animal models (A20 and LLC OE NAMPT/PD-L1)
  effect on body weight and organ index: did not affect the body weight and organ index
A2780 cells [6]; LZ90 20
  Cell cycle G0/G1: 36.54 and 37.05 and 37.41
  Cell cycle G2/M: 35.48 and 38.97 and 35.02
  Cell cycle S: 24.02 and 27.3 and 26.67
A2780 cells [6]; LZ90 40
  Cell cycle G0/G1: 46.76 and 45.07
  Cell cycle G2/M: 35.5 and 29.25 and 33.56
  Cell cycle S: 23.4 and 20.94 and 19.12
A2780 cells [6]; LZ90 60
  Cell cycle G0/G1: 32.3 and 44.46
  Cell cycle G2/M: 27.02 and 27.05
  Cell cycle S: 39.91 and 27.43
[7]
  inhibition at 0.1 µM: ~80%
